According to ChEMBL document CHEMBL3526047, “Excretion, metabolism, and pharmacokinetics of 1-(8-(2-chlorophenyl)-9-(4-chlorophenyl)-9H-purin-6-yl)-4-(ethylamino)piperidine-4-carboxamide, a selective cannabinoid receptor antagonist, in healthy male volunteers” (Drug Metab Dispos, 2012):

Key:
Serum [1] = experiment: Total drug level in serum of healthy obese adult male human treated with [14C]CP-945,598 at 25 mg, po administered as single dose after 48 hrs by HPLC method; assay type: ADME, organism-based; settings: in vivo
[2] = Drug excretion in urine of healthy obese adult male human treated with [14C]CP-945,598 at 25 mg, po administered as single dose after 0 to 384 hrs hrs by HPLC method; assay type: ADME, organism-based; settings: in vivo
[3] = Drug excretion in feces of healthy obese adult male human treated with [14C]CP-945,598 at 25 mg, po administered as single dose after 0 to 384 hrs hrs by HPLC method; assay type: ADME, organism-based; settings: in vivo
Homo sapiens [4] = experiment: Total drug excretion in healthy obese adult male human treated with [14C]CP-945,598 at 25 mg, po administered as single dose after 0 to 384 hrs hrs by HPLC method; assay type: ADME, organism-based; settings: in vivo
Cytochrome P450 3A4 = Cytochrome P450 3A4 (Homo sapiens, UniProt P08684); experiment: Drug metabolism assessed as human recombinant CYP3A4-mediated metabolite formation after 60 mins by HPLC method; assay type: ADME; settings: recombinant enzyme, 1 h
Homo sapiens [5] = experiment: Tmax in healthy obese adult male human treated with [14C]CP-945,598 at 25 mg, po administered as single dose; assay type: ADME, organism-based; settings: in vivo
Homo sapiens [6] = experiment: Cmax in healthy obese adult male human treated with [14C]CP-945,598 at 25 mg, po administered as single dose; assay type: ADME, organism-based; parameters: dose 25 mg, route oral; settings: in vivo
Homo sapiens [7] = experiment: AUC (0 to last) in healthy obese adult male human treated with [14C]CP-945,598 at 25 mg, po administered as single dose; assay type: ADME, organism-based, Plasma; parameters: dose 25 mg, route oral, time 0 - last; settings: in vivo
Homo sapiens [8] = experiment: AUC (0 to infinity) in healthy obese adult male human treated with [14C]CP-945,598 at 25 mg, po administered as single dose; assay type: ADME, organism-based, Plasma; parameters: dose 25 mg, time infinity, route oral; settings: in vivo
Homo sapiens [9] = experiment: Terminal elimination half life in healthy obese adult male human treated with [14C]CP-945,598 at 25 mg, po administered as single dose; assay type: ADME, organism-based; settings: in vivo
Serum [10] = experiment: Drug level in serum of healthy obese adult male human treated with [14C]CP-945,598 at 25 mg, po administered as single dose after 4 hrs by HPLC method; assay type: ADME, organism-based; settings: in vivo
Serum [11] = experiment: Drug level in serum of healthy obese adult male human treated with [14C]CP-945,598 at 25 mg, po administered as single dose after 12 hrs by HPLC method; assay type: ADME, organism-based; settings: in vivo
Serum [12] = experiment: Drug level in serum of healthy obese adult male human treated with [14C]CP-945,598 at 25 mg, po administered as single dose after 24 hrs by HPLC method; assay type: ADME, organism-based; settings: in vivo
Serum [13] = experiment: Drug level in serum of healthy obese adult male human treated with [14C]CP-945,598 at 25 mg, po administered as single dose after 48 hrs by HPLC method; assay type: ADME, organism-based; settings: in vivo
Serum [14] = experiment: AUC in serum of healthy obese adult male human treated with [14C]CP-945,598 at 25 mg, po administered as single dose after 48 hrs by HPLC method; assay type: ADME, organism-based; parameters: time < 48 hr, dose 25 mg, route oral; settings: in vivo

Chain of Cytochrome P450 3A4 (P08684 whole entry): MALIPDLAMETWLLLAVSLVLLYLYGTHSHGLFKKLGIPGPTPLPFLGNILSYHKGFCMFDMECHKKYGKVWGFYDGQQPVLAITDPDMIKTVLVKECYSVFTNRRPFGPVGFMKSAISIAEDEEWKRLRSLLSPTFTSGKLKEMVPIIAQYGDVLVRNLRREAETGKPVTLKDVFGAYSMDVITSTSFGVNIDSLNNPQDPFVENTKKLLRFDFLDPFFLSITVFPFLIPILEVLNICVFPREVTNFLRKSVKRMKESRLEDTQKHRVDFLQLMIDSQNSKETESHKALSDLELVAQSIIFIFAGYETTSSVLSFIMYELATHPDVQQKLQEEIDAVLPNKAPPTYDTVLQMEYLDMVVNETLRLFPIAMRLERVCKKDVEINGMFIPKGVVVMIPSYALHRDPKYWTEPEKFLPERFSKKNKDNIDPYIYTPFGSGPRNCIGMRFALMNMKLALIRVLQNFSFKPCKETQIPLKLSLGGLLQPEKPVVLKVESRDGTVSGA

| Drug uptake (Serum [1]) [ngequiv/g] | Drug excretion [2] [%] | Drug excretion [3] [%] | Drug excretion (Homo sapiens [4]) [%] | Drug metabolism (Cytochrome P450 3A4) [%] | Tmax (Homo sapiens [5]) [h] | Cmax (Homo sapiens [6]) [µg/mL] | AUClast (Homo sapiens [7]) [µg·h/mL] | AUC (Homo sapiens [8]) [µg·h/mL] | beta t1/2 (Homo sapiens [9]) [h] | Drug uptake (Serum [10]) [ngequiv/g] | Drug uptake (Serum [11]) [ngequiv/g] | Drug uptake (Serum [12]) [ngequiv/g] | Drug uptake (Serum [13]) [ngequiv/g] | AUC (Serum [14]) [ngequiv.hr/g] | Compound |
| --- | --- | --- | --- | --- | --- | --- | --- | --- | --- | --- | --- | --- | --- | --- | --- |
| 57.3 | 2.3 | 4.5 | 6.8 | 48.1 | 6.8 | 0.042 | 3.73 | 3.97 | 139 | 28.4 | 38.1 | 31.8 | 23.1 | 1401 | NC(=O)C1(N)CCN(c2ncnc3c2nc(-c2ccccc2Cl)n3-c2ccc(Cl)cc2)CC1 |
| – | – | 6.3 | 6.3 | – | – | – | – | – | – | – | – | – | – | – | NC(=O)C1(NC2O[C@H](CO)[C@@H](O)[C@H]2O)CCN(c2ncnc3c2nc(-c2ccccc2Cl)n3-c2ccc(Cl)cc2)CC1 (stereo partly specified) |
| 12.6 | – | – | – | 26.9 | – | – | – | – | – | 4.5 | 3.6 | 7.2 | 9.7 | 309 | O=C1CCN(c2ncnc3c2nc(-c2ccccc2Cl)n3-c2ccc(Cl)cc2)CC1 |
| 17.9 | – | – | – | 13 | – | – | – | – | – | 10.1 | 10.9 | 10.9 | 6 | 438 | ON=C1CCN(c2ncnc3c2nc(-c2ccccc2Cl)n3-c2ccc(Cl)cc2)CC1 |
